Here are results for 1 molecule from PMC9396876, “GRK3 is a poor prognosticator and serves as a therapeutic target in advanced gastric adenocarcinoma” (Journal of Experimental & Clinical Cancer Research : CR, 2022).

One experiment addresses T1, GRK2 (Homo sapiens, UniProt P25098).
T1 sequence (P25098 1-689): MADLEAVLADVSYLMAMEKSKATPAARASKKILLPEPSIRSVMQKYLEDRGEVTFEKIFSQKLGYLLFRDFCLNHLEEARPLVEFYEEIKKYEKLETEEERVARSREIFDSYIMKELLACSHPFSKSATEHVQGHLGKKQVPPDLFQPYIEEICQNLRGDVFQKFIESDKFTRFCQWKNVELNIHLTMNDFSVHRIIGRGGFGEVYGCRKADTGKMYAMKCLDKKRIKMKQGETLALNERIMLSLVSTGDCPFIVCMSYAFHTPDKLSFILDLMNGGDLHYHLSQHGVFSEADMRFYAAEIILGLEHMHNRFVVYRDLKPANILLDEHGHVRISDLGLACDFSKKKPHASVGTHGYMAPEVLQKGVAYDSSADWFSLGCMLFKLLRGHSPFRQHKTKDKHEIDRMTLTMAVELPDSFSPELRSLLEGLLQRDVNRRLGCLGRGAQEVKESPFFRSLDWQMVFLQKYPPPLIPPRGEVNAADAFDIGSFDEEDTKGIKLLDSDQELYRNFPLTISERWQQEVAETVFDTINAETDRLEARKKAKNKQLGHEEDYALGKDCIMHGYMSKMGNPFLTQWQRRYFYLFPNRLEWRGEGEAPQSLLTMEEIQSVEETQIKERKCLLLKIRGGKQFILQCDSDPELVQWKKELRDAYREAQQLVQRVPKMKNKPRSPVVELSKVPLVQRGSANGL
Briefly: in vitro kinase assay (Z-LYTE; ADP-Glo). The experiment is classed as biochemical. (In general: ADP-Glo first removes unused ATP, then detects ADP through luciferase.)

The target of experiment [1] is T2, GRK3 (G protein-coupled receptor kinase 3) (Homo sapiens, UniProt P35626).
T2 construct: recombinant GRK3 protein
T2 sequence (P35626 1-688): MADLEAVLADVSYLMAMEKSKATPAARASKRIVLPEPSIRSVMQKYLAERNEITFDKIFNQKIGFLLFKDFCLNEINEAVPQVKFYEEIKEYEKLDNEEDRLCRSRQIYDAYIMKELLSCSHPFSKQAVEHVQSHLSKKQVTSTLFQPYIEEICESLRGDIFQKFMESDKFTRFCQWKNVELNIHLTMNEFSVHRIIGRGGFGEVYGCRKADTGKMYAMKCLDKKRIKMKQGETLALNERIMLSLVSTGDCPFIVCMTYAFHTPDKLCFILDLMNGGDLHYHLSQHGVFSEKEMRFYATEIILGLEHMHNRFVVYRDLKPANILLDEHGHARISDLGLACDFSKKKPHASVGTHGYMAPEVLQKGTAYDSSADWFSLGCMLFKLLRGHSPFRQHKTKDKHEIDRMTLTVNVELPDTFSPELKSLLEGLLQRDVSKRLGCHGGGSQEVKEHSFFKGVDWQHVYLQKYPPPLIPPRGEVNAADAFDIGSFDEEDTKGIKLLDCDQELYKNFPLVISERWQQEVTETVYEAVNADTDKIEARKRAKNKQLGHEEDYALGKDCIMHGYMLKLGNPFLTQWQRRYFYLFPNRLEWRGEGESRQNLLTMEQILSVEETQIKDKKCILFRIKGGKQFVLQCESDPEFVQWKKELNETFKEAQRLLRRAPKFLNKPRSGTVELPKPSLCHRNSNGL
Briefly: in vitro kinase assay (Z-LYTE; ADP-Glo). The format is biochemical.

On to `Cn1cc(-c2[nH]c3cc(NC(=O)[C@H](N)C4CCCCC4)cc4c3c2C=NNC4=O)cn1` [LD2], for which the IC50 against GRK2 stood at 1950 nM; in experiment [1], 82 nM.

As a reminder, the IC50 is the concentration at which inhibition is half-maximal. Read a low IC50 as higher potency.
